Tests used:
[1] = test system: obese patients; conditions: cited from earlier work
[2] = test system: overweight male human subjects; experiment: Example 1: double-blind study of enteric coated oral d-mannoheptulose with 1-glutamic acid, serum insulin, glucose and C-peptide; format: in vivo
Protocol: A six-week double-blind study would also determine if combining an amino acid (i.e., 1-glutamic acid) and enteric coating would enhance the bioavailability and efficacy of oral d-mannoheptulose and prevent diarrhea. The amount of amino acid used was 500 mg per dose.
Thirteen healthy male human subjects, aged thirty-seven to fifty-seven, each at least forty pounds overweight, underwent screening blood testing. The Automated Chemistry Profile used included the following measurements: Serum Glucose, BUN, Creatinine, BUN/Creatinine Ratio, Uric Acid, Sodium, Potassium, Chloride, Carbon Dioxide, Calcium, Phosphorous, Total Protein, Albumin, Globulin, A/G Ratio, Total Bilirubin, Alkaline Phosphatase, LDH, AST, ALT, and Iron. A Lipid Profile, and CBC with Differential were also measured. Tests specific to this study included C-Peptide, Serum Insulin, and Hemoglobin A1c.
Subjects were randomly placed into two groups: “A” (Purple Caps) and “B” (Green Caps). Neither subject nor investigator knew which dosage forms were active and which were placebo. Once a week for three weeks, all subjects came to a local medical office while fasting and, stayed for a period of at least four hours. Blood was drawn from each subject in the fasting state, immediately following a high sugar meal, and at one and three hours after taking 500 mg. of MH. Additionally, fasting blood levels of glucose and insulin were drawn two times a week.
The intent was to cross over the patient test groups at the end of three weeks. But, the response of the group receiving active substance was so obvious that any attempt to continue the double-blind methodology in secrecy was pointless. The active compound group not only stabilized their eating patterns, but also experienced considerable weight loss.
At the end of the third week, the code was broken, confirming that the subjects with the dramatic response were getting the active oral dosage form. Thereafter, all subjects were given the same active dosage form.

[3] = test system: overweight hyperinsulinemic male and female subjects; experiment: Example 2: placebo-controlled crossover study of enteric coated d-manno-heptulose capsules, insulin, glucose, weight; format: in vivo, human
Protocol: All study subjects had serum insulin, blood glucose, and C-peptide levels drawn. The relationship of insulin to glucose was determined by the following formula: Glucose (mg %)×0.41−34=Insulin Thus: 83 mg % glucose×0.41=34.03−34=0.03 or, insulin vanishes from the blood at 83 mg %. Subjects were male and females under the age of 50, who were at least 45 pounds overweight according to the body mass index (BMI). […] Sixteen subjects were given 500 mg of d-manno-heptulose (MH) in enteric coated capsules. Sixteen subjects were given placebo in similar appearing capsules. All subjects received doses four times a day, which were orally ingested in the presence of the investigator. Insulin and glucose levels were drawn one hour after ingesting capsules, two hours afterwards, and four hours afterwards. C-peptide levels were measured once a day. Patients were asked to keep meal logs, recording everything that they ingested by mouth, on a daily basis, for the duration of the study. The subjects and investigators were both blind to the group receiving active medication. At the end of three weeks, the test groups were switched. The group receiving active dosage forms was switched with the group receiving placebo. The initial time period was designed to be three weeks. However, four patients dropped out because they found the schedule too demanding. Nine of the control group patients expressed a desire to quit, and four were allowed to withdraw. The remaining twenty-four subjects completed the six week period.

[4] = test system: Hexokinase; conditions: cited from earlier work
[5] = test system: mammals including man; conditions: cited from earlier work
[6] = twelve active medication subjects, first three weeks

CC1=NS(=O)(=O)c2cc(Cl)ccc2N1 [diazoxide]
effect on blood pressure [1]: drops blood pressure dangerously
effect on insulin levels [1]: lowers insulin levels

O=C(CO)[C@@H](O)[C@@H](O)[C@H](O)[C@H](O)CO [MH, d-mannoheptulose]
weight loss and carbohydrate craving reported by participants ([2]; all study participants): significant weight-loss and reduction in carbohydrate craving
average fasting serum insulin lower than baseline ([2]; end of study vs baseline at beginning of study): 26.41%
average reduction in C-peptide levels ([2]; end of study vs baseline, two subjects): 43%
fasting serum glucose higher than baseline ([2]; end of study vs baseline, called insignificant): 1.52%
lowering elevated serum insulin ([2]; enterically coated MH): effective short-term and long-term
nausea or diarrhea ([2]; enterically coated MH): not one instance of nausea or diarrhea was reported
indications of toxicity ([2]; hematological or symptomatic, any subject): no hematological or symptomatic indications of toxicity
glycemic state of participant hypoglycemic at entry ([2]; one study participant): became normalglycemic
serum insulin lower than baseline fasting insulin ([2]; three hours after one dose of MH, same-day glucose challenge, average): 22.4%
average glucose increase ([2]; three hours after one dose of MH, same-day glucose challenge, called insignificant): 1.92%
Fasting insulin ([3]; after active medication for three days, all subjects of A group): 0
time to begin lowering plasma insulin levels ([3]; after administration): two
tolerance for high-sugar foods ([3]; all MH recipients while on medication): diminished tolerance for high-sugar foods
Fasting insulin ([3]; control group changed from placebo to MH, middle of second day, after six doses): 0
average per day weight loss ([3]; control group changed from placebo to MH, over twenty-one days): 2.2 lbs.
average weight loss after switch to placebo ([3]; original twelve active patients): 0.7 lbs. per day
duration of insulin suppressing action after switch to placebo ([3]; original twelve active patients, on average): eleven
Average weight loss [3, 6]: 1.6 lbs. per day per subject
greatest weight loss [3, 6]: 1.9 lbs. per day
lowest weight loss [3, 6]: 1.2 lbs. per day
average decrease of insulin levels ([3]; two hours after administration of MH, A group, twelve subjects): 81%
inhibition of hexokinase [4]: inhibits hexokinase in a predominantly competitive manner
effect on insulin release ([5]; mammals including man): lower fasting and glucose stimulated peak insulin release
absorption on oral administration ([5]; oral): poor absorption on oral administration
side effects on oral administration ([5]; oral): unpleasant side effects (e.g., diarrhea, nausea)

Source: patent publication US6896914B2, “Method for normalizing insulin levels” (priority 2001, dated 2005)
